From patent publication US8471005B2 (Cephalon, Inc., priority 2008, dated 2013)
Where two headings read alike, the source gives them in different places.

Legend:
JAK2 = target: T1, JAK2 (Homo sapiens, UniProt O60674); experiment: Recombinant Human JAK2 Kinase Assay (TRF); type: biochemical; conditions: read-out: JAK2 Potency
T1 construct: host or cells: baculovirus expression system
Summary of the method: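 Europium-labelled PY100 antibody reported tyrosine phosphorylation of a Neutravidin-captured biotinyl 15-mer peptide by JAK2 (baculovirus-expressed, 15 ng/ml). Conditions: 20 mM HEPES pH 7.2, 0.2 μM ATP, 1 mM MnCl2, 0.1% BSA, DMSO 2.5% final, 20 min at room temperature.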

ALK = target: T2, ALK (Homo sapiens, UniProt Q9UM73); experiment: ALK Kinase Assay (ELISA/TRF, PLC-γ substrate); type: biochemical; conditions: read-out: ALK Potency
T2 construct: host or cells: baculovirus expression system
T2 sequence (Q9UM73 19-1620): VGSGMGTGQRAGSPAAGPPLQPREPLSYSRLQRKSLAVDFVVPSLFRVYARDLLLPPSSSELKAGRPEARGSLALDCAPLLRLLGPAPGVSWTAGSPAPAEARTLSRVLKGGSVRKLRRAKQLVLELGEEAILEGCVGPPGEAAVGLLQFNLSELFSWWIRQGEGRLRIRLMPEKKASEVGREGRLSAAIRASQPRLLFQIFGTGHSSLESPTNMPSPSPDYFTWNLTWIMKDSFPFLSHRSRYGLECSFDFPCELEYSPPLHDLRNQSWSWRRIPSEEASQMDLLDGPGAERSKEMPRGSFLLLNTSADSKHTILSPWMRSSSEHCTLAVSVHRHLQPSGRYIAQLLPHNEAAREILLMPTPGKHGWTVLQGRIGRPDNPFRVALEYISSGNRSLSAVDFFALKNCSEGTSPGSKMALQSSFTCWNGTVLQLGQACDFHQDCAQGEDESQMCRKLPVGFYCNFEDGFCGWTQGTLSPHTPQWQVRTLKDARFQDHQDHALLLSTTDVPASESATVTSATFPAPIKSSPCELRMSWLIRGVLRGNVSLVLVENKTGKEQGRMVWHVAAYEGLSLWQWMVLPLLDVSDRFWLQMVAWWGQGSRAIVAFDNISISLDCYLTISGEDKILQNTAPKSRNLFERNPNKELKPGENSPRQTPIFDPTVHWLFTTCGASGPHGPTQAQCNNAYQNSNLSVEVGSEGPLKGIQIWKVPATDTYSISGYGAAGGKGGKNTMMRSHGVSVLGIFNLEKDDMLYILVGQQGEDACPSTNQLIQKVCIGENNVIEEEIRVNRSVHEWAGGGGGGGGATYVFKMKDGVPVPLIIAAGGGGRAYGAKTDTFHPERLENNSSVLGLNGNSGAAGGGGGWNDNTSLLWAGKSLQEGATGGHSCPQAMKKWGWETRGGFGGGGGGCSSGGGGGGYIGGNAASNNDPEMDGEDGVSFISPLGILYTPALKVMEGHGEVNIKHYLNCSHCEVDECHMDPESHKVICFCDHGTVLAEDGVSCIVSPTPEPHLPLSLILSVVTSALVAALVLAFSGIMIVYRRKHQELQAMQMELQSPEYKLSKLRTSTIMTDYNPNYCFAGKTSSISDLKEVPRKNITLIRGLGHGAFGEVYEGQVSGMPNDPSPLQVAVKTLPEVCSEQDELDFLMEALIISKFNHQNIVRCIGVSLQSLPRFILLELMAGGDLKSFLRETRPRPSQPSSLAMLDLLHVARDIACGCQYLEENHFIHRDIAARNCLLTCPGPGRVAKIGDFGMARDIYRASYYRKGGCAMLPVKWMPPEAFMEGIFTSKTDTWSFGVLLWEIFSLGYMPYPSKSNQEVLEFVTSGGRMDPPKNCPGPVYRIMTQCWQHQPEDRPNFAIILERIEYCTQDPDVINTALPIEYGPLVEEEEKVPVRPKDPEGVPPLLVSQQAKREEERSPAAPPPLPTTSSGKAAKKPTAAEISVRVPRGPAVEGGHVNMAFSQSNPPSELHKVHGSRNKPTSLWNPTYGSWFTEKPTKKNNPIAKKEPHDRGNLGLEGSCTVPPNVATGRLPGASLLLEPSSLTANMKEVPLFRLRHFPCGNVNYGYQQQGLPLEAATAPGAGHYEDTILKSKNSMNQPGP
Summary of the method: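 First, plates are coated with substrate (phospholipase C-γ, 10 μg/mL, TBS). Next, 30 ng/ml ALK initiates phosphorylation for 15 min at 37° C. Then Eu-N1 PT66 antibody is added for detection, and a nonlinear dose-response fit of percent inhibition yields IC50.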

[1] = JAK2 kinase inhibition, 0.2 μM ATP
[2] = ALK kinase inhibition, 1 μM ATP

T1 sequence (O60674 whole entry): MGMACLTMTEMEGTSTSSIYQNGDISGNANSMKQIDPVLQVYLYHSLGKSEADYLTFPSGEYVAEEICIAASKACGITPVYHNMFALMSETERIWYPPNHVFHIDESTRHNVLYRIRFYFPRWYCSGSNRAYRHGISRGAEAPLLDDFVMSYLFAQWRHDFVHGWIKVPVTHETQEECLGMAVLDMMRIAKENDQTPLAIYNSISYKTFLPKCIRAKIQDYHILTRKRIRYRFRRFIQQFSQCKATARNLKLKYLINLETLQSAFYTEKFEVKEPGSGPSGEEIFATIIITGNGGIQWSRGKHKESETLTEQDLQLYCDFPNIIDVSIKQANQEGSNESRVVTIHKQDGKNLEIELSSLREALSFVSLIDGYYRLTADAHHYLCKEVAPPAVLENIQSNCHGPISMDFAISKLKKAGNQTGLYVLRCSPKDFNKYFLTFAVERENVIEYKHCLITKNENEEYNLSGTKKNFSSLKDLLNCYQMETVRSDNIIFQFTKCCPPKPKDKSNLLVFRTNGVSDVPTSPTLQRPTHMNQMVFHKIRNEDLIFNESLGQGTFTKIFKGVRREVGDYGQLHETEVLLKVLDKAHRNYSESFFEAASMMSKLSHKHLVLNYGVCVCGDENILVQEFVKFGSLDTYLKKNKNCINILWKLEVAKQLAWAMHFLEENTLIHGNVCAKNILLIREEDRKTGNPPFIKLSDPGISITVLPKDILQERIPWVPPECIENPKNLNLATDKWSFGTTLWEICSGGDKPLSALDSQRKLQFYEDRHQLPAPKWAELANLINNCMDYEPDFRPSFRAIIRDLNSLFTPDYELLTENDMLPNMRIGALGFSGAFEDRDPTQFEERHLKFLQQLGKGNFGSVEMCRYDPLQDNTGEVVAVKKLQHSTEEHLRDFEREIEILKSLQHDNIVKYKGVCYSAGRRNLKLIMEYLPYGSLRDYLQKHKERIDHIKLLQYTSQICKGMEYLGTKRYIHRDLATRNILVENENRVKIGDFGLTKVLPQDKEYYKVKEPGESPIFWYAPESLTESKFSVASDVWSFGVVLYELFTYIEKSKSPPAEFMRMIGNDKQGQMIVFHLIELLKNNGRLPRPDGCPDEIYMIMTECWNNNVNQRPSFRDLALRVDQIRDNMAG

IC50 (JAK2; [1])	IC50 (ALK; [2])	IC50 (JAK2; JAK2 Kinase Inhibition)	IC50 (ALK; ALK Kinase Inhibition)	SMILES
< 100 nM	100 to 1000 nM			CN1CCC(c2ccc(Nc3ncc4ccc(-c5cccc(S(=O)(=O)NCc6ccccc6)c5)n4n3)cc2)CC1 [Example 904, N-Benzyl-3-{2-[4-(1-methyl-piperidin-4-yl)-phenylamino]-pyrrolo[2,1-f][1,2,4]triazin-7-yl}-benzenesulfonamide]
< 100 nM	1000 to 10000 nM			CS(=O)(=O)c1cccc(-c2ccc3cnc(Nc4ccc(CN5CCS(=O)(=O)CC5)cc4)nn23)c1 [Example 1049, [4-(1,1-Dioxo-1$1(6)-thiomorpholin-4-ylmethyl)-phenyl]-[7-(3-methanesulfonyl-phenyl)-pyrrolo[2,1-f][1,2,4]triazin-2-yl]-amine]
< 100 nM	100 to 1000 nM			CN1CCN(c2cccc(Nc3ncc4ccc(-c5cnn(CCC#N)c5)n4n3)c2)CC1 [Example 977, 3-(4-{2-[3-(4-Methyl-piperazin-1-yl)-phenylamino]-pyrrolo[2,1-f][1,2,4]triazin-7-yl}-pyrazol-1-yl)-propionitrile]
< 100 nM	< 100 nM			COc1cc(Nc2ncc3ccc(-c4ccccc4N(C)S(C)(=O)=O)n3n2)ccc1C1CCN(CC(N)=O)CC1 [Example 914, 2-[4-(4-{7-[2-(Methanesulfonyl-methyl-amino)-phenyl]-pyrrolo[2,1-f][1,2,4]triazin-2-ylamino}-2-methoxy-phenyl)-piperidin-1-yl]-acetamide]
< 100 nM	100 to 1000 nM			Cn1cnc2ccc(Nc3ncc4ccc(-c5ccc(S(C)(=O)=O)cc5)n4n3)cc21 [Example 1301, [7-(4-Methanesulfonyl-phenyl)-pyrrolo[2,1-f][1,2,4]triazin-2-yl]-(3-methyl-3H-benzimidazol-5-yl)-amine]
< 100 nM	100 to 1000 nM			COc1ccccc1-c1ccc2cnc(Nc3ccc4nc(C(C)(C)C)[nH]c4c3)nn12 [Example 1352, (2-tert-Butyl-3H-benzimidazol-5-yl)-[7-(2-methoxy-phenyl)-pyrrolo[2,1-f][1,2,4]triazin-2-yl]-amine]
< 100 nM	1000 to 10000 nM			CN1CCN(c2ccc(Nc3ncc4ccc(-c5cccc(N6CCN(C(=O)OC(C)(C)C)CC6)c5)n4n3)cc2)CC1 [Example 1166, 4-(3-{2-[4-(4-Methyl-piperazin-1-yl)-phenylamino]-pyrrolo[2,1-f][1,2,4]triazin-7-yl}-phenyl)-piperazine-1-carboxylic acid tert-butyl ester]
< 100 nM	1000 to 10000 nM			CC(C)(C)NS(=O)(=O)c1cccc(-c2ccc3cnc(Nc4cccc(C(=O)N5CCOCC5)c4)nn23)c1 [Example 892, N-tert-Butyl-3-{2-[3-(morpholine-4-carbonyl)-phenylamino]-pyrrolo[2,1-f][1,2,4]triazin-7-yl}-benzenesulfonamide]
< 100 nM	1000 to 10000 nM			CS(=O)(=O)c1cccc(-c2ccc3cnc(Nc4ccc(-c5cccnc5)cc4)nn23)c1 [Example 1087, [7-(3-Methanesulfonyl-phenyl)-pyrrolo[2,1-f][1,2,4]triazin-2-yl]-(4-pyridin-3-yl-phenyl)-amine]
< 100 nM	100 to 1000 nM			CN(c1ccccc1-c1ccc2cnc(Nc3ccc4[nH]ncc4c3)nn12)S(C)(=O)=O [Example 1338, N-{2-[2-(1H-Indazol-5-ylamino)-pyrrolo[2,1-f][1,2,4]triazin-7-yl]-phenyl}-N-methyl-methanesulfonamide]
100 to 1000 nM	< 100 nM			COc1cc2c(cc1Nc1ncc3ccc(-c4ccccc4N(C)S(C)(=O)=O)n3n1)CN(C(=O)CN)C2 [Example 879, N-(2-{2-[2-(2-Amino-acetyl)-6-methoxy-2,3-dihydro-1H-isoindol-5-ylamino]-pyrrolo[2,1-f][1,2,4]triazin-7-yl}-phenyl)-N-methyl-methanesulfonamide]
< 100 nM	100 to 1000 nM			Cc1cc(-c2ccc3cnc(Nc4ccc(N5CCN(C)CC5)cc4)nn23)cnc1F [Example 1046, [7-(6-Fluoro-5-methyl-pyridin-3-yl)-pyrrolo[2,1-f][1,2,4]triazin-2-yl]-[4-(4-methyl-piperazin-1-yl)-phenyl]-amine]

Further lines, the compound ahead of its results:

SMILES	IC50 (JAK2; [1])	IC50 (ALK; [2])	IC50 (JAK2; JAK2 Kinase Inhibition)	IC50 (ALK; ALK Kinase Inhibition)
COc1cc(N2CCC(N3CCCC3)CC2)ccc1Nc1ncc2ccc(-c3ccccc3N(C)S(C)(=O)=O)n2n1 [Example 480, N-(2-{2-[2-Methoxy-4-(4-pyrrolidin-1-yl-piperidin-1-yl)-phenylamino]-pyrrolo[2,1-f][1,2,4]triazin-7-yl}-phenyl)-N-methyl-methanesulfonamide]	1000 to 10000 nM	< 100 nM		
COc1ccccc1-c1ccc2cnc(Nc3ccc4c(c3)C(N)C(O)C4)nn12 (centres unmarked) [Example 681, 1-Amino-6-[7-(2-methoxy-phenyl)-pyrrolo[2,1-f][1,2,4]triazin-2-ylamino]-indan-2-ol]	< 100 nM	100 to 1000 nM		
COc1ccc(-c2ccc3cnc(Nc4ccc(C5CN(CC(N)=O)C5)cc4)nn23)cn1 [Example 584, 2-(3-{4-[7-(6-Methoxy-pyridin-3-yl)-pyrrolo[2,1-f][1,2,4]triazin-2-ylamino]-phenyl}-azetidin-1-yl)-acetamide]	< 100 nM	100 to 1000 nM		
O=C(c1cccc(-c2ccc3cnc(Nc4ccc(N5CCOCC5)cc4)nn23)c1)N1CCCC1 [Example 15, {3-[2-(4-Morpholin-4-yl-phenylamino)-pyrrolo[2,1-f][1,2,4]triazin-7-yl]-phenyl}-pyrrolidin-1-yl-methanone]			< 100 nM	100 to 1000 nM
COc1cc(N2CCC(N3CCN(C)CC3)CC2)ccc1Nc1ncc2ccc(-c3cccc(S(=O)(=O)NC(C)(C)C)c3)n2n1 [Example 534, N-tert-Butyl-3-(2-{2-methoxy-4-[4-(4-methyl-piperazin-1-yl)-piperidin-1-yl]-phenylamino}-pyrrolo[2,1-f][1,2,4]triazin-7-yl)-benzene sulfonamide]	< 100 nM	< 100 nM		
CN1C(=O)Cc2cc(Nc3ncc4ccc(-c5cccnc5)n4n3)ccc21 [Example 374, 1-Methyl-5-(7-pyridin-3-yl-pyrrolo[2,1-f][1,2,4]triazin-2-ylamino)-1,3-dihydro-indol-2-one]			< 100 nM	1000 to 10000 nM
COc1ccccc1-c1ccc2cnc(Nc3ccc4c(c3)CC(=O)N4)nn12 [Example 432, 5-[7-(2-Methoxy-phenyl)-pyrrolo[2,1-f][1,2,4]triazin-2-ylamino]-1,3-dihydro-indol-2-one]			< 100 nM	100 to 1000 nM
COc1cc(C2CCN(C[C@H](O)C(F)(F)F)CC2)ccc1Nc1ncc2ccc(-c3ccccc3N(C)S(C)(=O)=O)n2n1 [Example 804, N-[2-(2-{2-Methoxy-4-[1-((S)-3,3,3-trifluoro-2-hydroxy-propyl)-piperidin-4-yl]-phenylamino}-pyrrolo[2,1-f][1,2,4]triazin-7-yl)-phenyl]-N-methyl-methanesulfonamide]	100 to 1000 nM	< 100 nM		
NC(=O)CN1CCC(c2ccc(Nc3ncc4ccc(-c5cccc6cccnc56)n4n3)cc2)CC1 [Example 514, 2-{4-[4-(7-Quinolin-8-yl-pyrrolo[2,1-f][1,2,4]triazin-2-ylamino)-phenyl]-piperidin-1-yl}-acetamide]	< 100 nM	1000 to 10000 nM		
CN1CCN(c2ccc(Nc3ncc4ccc(-c5cccc(S(=O)(=O)N6CCCC6)c5)n4n3)cc2)CC1 [Example 367, [4-(4-Methyl-piperazin-1-yl)-phenyl]-{7-[3-(pyrrolidine-1-sulfonyl)-phenyl]-pyrrolo[2,1-f][1,2,4]triazin-2-yl}-amine]			< 100 nM	100 to 1000 nM
